Measured values reported in paper PMC12383145, “Fluorescent Peptides Internalize HeLa Cells and Kill Multidrug-Resistant Clinical Bacterial Isolates” (Antibiotics, 2025).
≈ marks a conversion by molar mass, not a printed value. Where “and” joins values, the source holds several entries; their conditions need not be identical. Identical values can stand only once. Like-named read-outs stand apart in the source and are kept apart here. Non-standard residues stand in square brackets, D forms with d. Residues, ends and D or L forms follow the SMILES beside them. 2Abz = Nc1ccccc1C(=O)O

What was measured:
Format in all cases: cell-based
Hemolysis assay = experiment: Hemolysis assay
Method: Whole blood was collected into EDTA tubes and centrifuged at 2500 rpm for 10 min. The plasma and buffy coat were removed, and the erythrocytes were washed three times with 0.9% saline to yield a 4% cell suspension. In 96-well plates, 100 µL of peptide dilutions (6.25–200 µg/mL) were prepared in triplicate, and 100 µL of the erythrocyte suspension was added (final hematocrit 2%). Plates were incubated at 37 °C for 2 h, and then centrifuged again at 2500 rpm for 10 min. A 100 µL aliquot of the supernatant was transferred to a fresh plate, and absorbance was measured at 450 nm. Saline and 1× Triton X-100 served as the negative and positive controls, respectively. Hemolysis (%) was calculated as follows: %hemolysis=treatment absorbance−saline absorbance/1×triton absorbance−saline absorbance

[1] = test system: S. aureus clinical isolate 11719; details: S. aureus clinical isolate 11719
[2] = test system: E. coli clinical isolate 129797 (resistant); details: E. coli clinical isolate 129797
Method: (§1) E. coli isolates 1004 (susceptible), 129797 (resistant), and 301755 (MDR) were selected for evaluation. Isolate 1004 was sensitive to all antibiotics tested. […] These findings identify it as a multidrug-resistant (MDR) strain and an extended-spectrum beta-lactamase (ESBL)-producing bacterium. For S. aureus, isolates 109095, 117719, and 124653 were evaluated. All three were resistant to penicillin, indicating beta-lactamase production mediated by the blaZ gene. Studies have shown that up to 90% of S. aureus isolates worldwide are penicillin-resistant, which implies that this antibiotic is ineffective in infections caused by this pathogen. […] Isolate 124653 was resistant to penicillin, tetracycline, and erythromycin, with the latter belonging to the group of macrolides, antibiotics that inhibit protein synthesis through interaction with the 50S […] subunit. For E. faecalis three isolates were selected: strains 213 (sensitive to all the antibiotics tested), strain 82 (resistant to streptomycin), and strain 179 (resistant to gentamicin). These clinical isolates were selected to assess the antimicrobial activity of the peptide RWQWRWQWR and its analogues conjugated to fluorescent molecules in strains against strains with susceptibility profiles.
(§2) The analysis of synthesized peptides in ATCC reference strains and susceptible, resistant, and multidrug-resistant (MDR) clinical isolates was performed. The clinical isolates were obtained from the National Cancer Institute collection and were previously identified and antibiogrammed using the VITEK system. Additionally, the strains were characterized by MALDI-TOF. The strains were re-primed onto trypticase soy agar and subsequently preserved in Brain–Heart Infusion (BHI) broth containing 20% glycerol. For the MIC and MBC assays, the strains were reactivated and cultured in BHI until they reached their exponential growth phase.
(§3) The minimum inhibitory concentration (MIC) of the peptides was determined by the broth microdilution technique, according to the Clinical and Laboratory Standards Institute (CLSI) guidelines, as previously described. Briefly, bacterial strains were incubated in BHI broth at 37 °C until they reached the exponential growth phase, and inocula were adjusted to 5 × 10^6 CFU/mL using calibration curves. Serial dilutions of the peptides to be evaluated in 96-well plates were made in 90 µL of Mueller Hinton broth at concentrations ranging from 200 to 6.25 µg/mL, and 10 µL of the inoculum adjusted to 5 × 10^6 CFU/mL was added. Finally, the plates were incubated at 37 °C for 24 h, and the absorbance at 620 nm was read. As a negative control, CMH, distilled water, and 10 µL of inoculum were used; for the positive control, vancomycin was used for Gram-positive strains and ciprofloxacin for Gram-negative strains at the MICs dictated by the CLSI; as a technical control, CMH with peptone water was used, and for the growth control, CMH was used with 10 µL of inoculum.
(§4) To determine the minimum bactericidal concentration (MBC), the 96-well plates where the MIC was determined were used as a starting point. From these, an aliquot of the controls and those wells where no apparent bacterial growth was observed were spotted onto trypticase soy agar plates. The plates were incubated at 37 °C for 24 h, and the reading was taken, identifying the lowest concentration of the peptide where there was no bacterial growth as the MBC.

[3] = test system: E. faecalis clinical isolate 213; details: E. faecalis clinical isolate 213
Method: as §1, §2, §3, §4

[4] = test system: clinical isolates of E. coli; details: stated for all three E. coli clinical isolates
Method: as §1, §2, §3, §4

[5] = test system: E. faecalis clinical isolate 179; details: E. faecalis clinical isolate 179
Method: as §1, §2, §3, §4

[6] = test system: S. aureus clinical isolate 109095; details: S. aureus clinical isolate 109095
Method: as §1, §2, §3, §4

[7] = test system: S. aureus clinical isolate 124653; details: S. aureus clinical isolate 124653
Method: as §1, §2, §3, §4

[8] = test system: E. coli clinical isolate 1004 (susceptible); details: E. coli clinical isolate 1004
Method: as §1, §2, §3, §4

[9] = test system: E. faecalis clinical isolate 82; details: E. faecalis clinical isolate 82
Method: as §1, §2, §3, §4

[10] = test system: E. coli clinical isolate 301755 (MDR); details: E. coli clinical isolate 301755
Method: as §1, §2, §3, §4

P. aeruginosa ATCC 27853 = details: P. aeruginosa ATCC 27853
Method: as §3, §4

[11] = test system: K. pneumoniae ATCC 700603; details: K. pneumoniae ATCC 700603
Method: as §3, §4

E. coli ATCC 25922 = details: E. coli ATCC 25922
Method: as §3, §4

E. faecalis ATCC 29212 = details: E. faecalis ATCC 29212
Method: as §3, §4

[12] = MTT cytotoxicity assay in HeLa cells; details: human; HeLa cells, MTT; read-out: Cytotoxic Activity (IC50)
Method: MTT assays were conducted in HeLa cells to evaluate the effect of fluorescent probe incorporation on the in vitro cytotoxic activity of the parent non-conjugated peptides. The cytotoxic effect of peptides 1, Abz-1 RhB-1, 2, and RhB-2 in HeLa cells was peptide concentration-dependent, with the highest anticancer activity observed at 200 µg/mL. Incorporation of 2-Abz and RhB at the N-terminal end reduced cytotoxic activity, while the binding of 2-Abz at the C-terminal end or FAM at the N-terminal end drastically diminished anticancer activity (Table 4).

## N=C(N)NCCC[C@H](NC(=O)[C@H](Cc1c[nH]c2ccccc12)NC(=O)[C@H](CCC(N)=O)NC(=O)[C@H](Cc1c[nH]c2ccccc12)NC(=O)[C@H](CCCNC(=N)N)NC(=O)[C@H](Cc1c[nH]c2ccccc12)NC(=O)[C@H](CCC(N)=O)NC(=O)[C@H](Cc1c[nH]c2ccccc12)NC(=O)[C@@H](N)CCCNC(=N)N)C(=O)Nc1ccccc1C(N)=O [1-Abz, RWQWRWQWR-(2-Abz)] (H-RWQWRWQWR[2Abz]-NH2)
Hemolysis assay; at 200 µg/mL (highest tested concentration), 2 h, 37 °C, read-out: hemolysis
  hemolysis at 2 h: 1.5%
Hemolysis assay; at the lowest MIC concentration, read-out: Percentage of hemolysis
  hemolysis at 2 h: 0.9%
[1]
  Minimal bactericidal concentration (MBC): 125 µM (≈ 201 µg/mL)
  Minimal inhibitory concentration (MIC): 125 µM (≈ 201 µg/mL)
[2]
  Minimal bactericidal concentration (MBC): 125 µM (≈ 201 µg/mL)
  Minimal inhibitory concentration (MIC): 62 µM (≈ 99.6 µg/mL)
[3]
  Minimal bactericidal concentration (MBC): > 125 µM
  Minimal inhibitory concentration (MIC): > 125 µM
[4]
  MBC: 125 µM (≈ 201 µg/mL)
[5]
  Minimal bactericidal concentration (MBC): > 125 µM
  Minimal inhibitory concentration (MIC): > 125 µM
[6]
  Minimal bactericidal concentration (MBC): 125 µM (≈ 201 µg/mL)
  Minimal inhibitory concentration (MIC): 125 µM (≈ 201 µg/mL)
[7]
  Minimal bactericidal concentration (MBC): > 125 µM
  Minimal inhibitory concentration (MIC): 125 µM (≈ 201 µg/mL)
[8]
  Minimal bactericidal concentration (MBC): 125 µM (≈ 201 µg/mL)
  Minimal inhibitory concentration (MIC): 62 µM (≈ 99.6 µg/mL)
[9]
  Minimal bactericidal concentration (MBC): > 125 µM
  Minimal inhibitory concentration (MIC): > 125 µM
[10]
  Minimal bactericidal concentration (MBC): 125 µM (≈ 201 µg/mL)
  Minimal inhibitory concentration (MIC): 62 µM (≈ 99.6 µg/mL)
P. aeruginosa ATCC 27853
  Minimal bactericidal concentration (MBC): > 125 µM
  Minimal inhibitory concentration (MIC): 125 µM (≈ 201 µg/mL)
[11]
  Minimal bactericidal concentration (MBC): 125 µM (≈ 201 µg/mL)
  Minimal inhibitory concentration (MIC): 125 µM (≈ 201 µg/mL)
E. coli ATCC 25922
  Minimal bactericidal concentration (MBC): 62 µM (≈ 99.6 µg/mL)
  Minimal inhibitory concentration (MIC): 62 µM (≈ 99.6 µg/mL)
E. faecalis ATCC 29212
  Minimal bactericidal concentration (MBC): > 125 µM
  Minimal inhibitory concentration (MIC): 125 µM (≈ 201 µg/mL)
[12]
  IC50: > 200 µg/mL and > 125 µM
